Laboratory results published in ChEMBL document CHEMBL1201862, “PubChem BioAssay data set” (2004).
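Results reflect a 48-hour exposure of cells in 96-well plates to compound at five concentrations. GI50 marks 50% less growth.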 Activity calls are given as the source filed them. No stated cut-off is given here; in the data, active = GI50 up to about 1.1 µM and inactive = higher.

Legend:
Assay in all cases: inhibition of tumour cell growth, NCI panel, 48 h
SK-MEL-5 = test system: SK-MEL-5
MOLT-4 = test system: MOLT-4
786-0 = test system: 786-0
OVCAR-4 = test system: OVCAR-4
U-251 = test system: U-251
ACHN = test system: ACHN
CAKI-1 = test system: CAKI-1
HOP-92 = test system: HOP-92
HT-29 = test system: HT-29
HCT-116 = test system: HCT-116
SF-539 = test system: SF-539
SK-MEL-28 = test system: SK-MEL-28
A549 = test system: A549
HOP-62 = test system: HOP-62
K562 = test system: K562
SR = test system: SR
HCT-15 = test system: HCT-15
MCF7 = test system: MCF7
SK-OV-3 = test system: SK-OV-3

Row | SMILES | GI50 (SK-MEL-5) | GI50 (MOLT-4) | GI50 (786-0) | GI50 (OVCAR-4) | GI50 (U-251) | GI50 (ACHN) | GI50 (CAKI-1) | GI50 (HOP-92) | GI50 (HT-29) | GI50 (HCT-116) | GI50 (SF-539) | GI50 (SK-MEL-28) | GI50 (A549) | GI50 (HOP-62) | GI50 (K562) | GI50 (SR) | GI50 (HCT-15) [µM] | GI50 (MCF7) | GI50 (SK-OV-3)
1 | CN(C)CCNc1ccc2c(=O)n(CCN(C)C)c(=O)n3c4ccc(N)cc4c(=O)c1c23 | 0.194 µM (active) | < 0.01 µM (active) | < 0.01 µM (active) | 0.0721 µM (active) | 0.0264 µM (active) | < 0.01 µM (active) | 0.115 µM (active) | 0.0807 µM (active) | < 0.01 µM (active) | < 0.01 µM (active) | 0.0395 µM (active) | 0.24 µM (active) | < 0.01 µM (active) | 0.109 µM (active) | < 0.01 µM (active) | < 0.0194 µM (active) | 0.0211 | < 0.012 µM (active) | 0.261 µM (active)
2 | O=C1NC(=O)C(Cc2ccccc2)(c2cccnc2)N1 (centres undefined) | > 100 µM (inactive) | > 100 µM (inactive) | > 100 µM (inactive) | > 100 µM (inactive) | > 100 µM (inactive) | > 100 µM (inactive) | > 100 µM (inactive) | > 100 µM (inactive) | > 100 µM (inactive) | > 100 µM (inactive) | > 100 µM (inactive) | > 100 µM (inactive) | > 100 µM (inactive) | > 100 µM (inactive) | > 100 µM (inactive) | > 100 µM (inactive) | > 100 | > 100 µM (inactive) | > 100 µM (inactive)
3 | NS(=O)(=O)c1ccc(Nc2c3ccccc3nc3c(C(=O)NCCO)cccc23)cc1 | 0.0853 µM (active) | 0.0241 µM (active) | 0.145 µM (active) | 0.195 µM (active) | 0.0728 µM (active) | 0.252 µM (active) | 0.198 µM (active) | 0.148 µM (active) | 0.16 µM (active) | 0.149 µM (active) | 0.131 µM (active) | 0.167 µM (active) | 0.178 µM (active) | 0.167 µM (active) | 0.13 µM (active) | 0.0128 µM (active) | 0.169 | 0.0373 µM (active) | 0.201 µM (active)
4 | O=C1N=C2SC=C(NC(=S)Nc3ccccc3)N2NC12c1ccccc1-c1ccccc12 | > 10 µM (inactive) | > 10 µM (inactive) | > 10 µM (inactive) | > 10 µM (inactive) |  | 9.4 µM (inactive) | > 10 µM (inactive) | > 10 µM (inactive) | > 10 µM (inactive) | > 10 µM (inactive) | > 10 µM (inactive) | > 10 µM (inactive) | > 10 µM (inactive) | > 10 µM (inactive) | > 10 µM (inactive) | > 10 µM (inactive) | > 10 | > 10 µM (inactive) | > 10 µM (inactive)
5 | CC(C)(C)N1C(=O)c2ccccc2C1(O)C(F)(F)F (centres undefined) | > 100 µM (inactive) |  | > 100 µM (inactive) | > 100 µM (inactive) | > 100 µM (inactive) | > 100 µM (inactive) | > 100 µM (inactive) | > 100 µM (inactive) | > 100 µM (inactive) | > 100 µM (inactive) | > 100 µM (inactive) | > 100 µM (inactive) | > 100 µM (inactive) | > 100 µM (inactive) | 20.5 µM (inactive) | > 100 µM (inactive) | > 100 | > 100 µM (inactive) | > 100 µM (inactive)
6 | CCOc1cc(NC(C)=O)ccc1C(=O)NN1C(=O)CSC1c1ccccc1 (centres undefined) | 34.4 µM (inactive) | < 0.01 µM (active) | > 100 µM (inactive) | 84.1 µM (inactive) |  | > 100 µM (inactive) | > 100 µM (inactive) | 42.5 µM (inactive) | > 100 µM (inactive) | > 100 µM (inactive) | > 100 µM (inactive) | > 100 µM (inactive) | 77.3 µM (inactive) | > 100 µM (inactive) | 28.8 µM (inactive) | 9.86 µM (inactive) | 60.3 | 78.5 µM (inactive) | > 100 µM (inactive)
7 | CC[C@]12C=CCN3CC[C@@]4(c5cc(N=O)c(OC)cc5N(C)[C@H]4[C@@](O)(C(=O)NC(Cc4c[nH]c5ccccc45)C(=O)OC)[C@@H]1O)[C@@H]32 (some centres undefined) | 14.8 µM (inactive) | 1.46 µM (inactive) | 30 µM (inactive) | 15.6 µM (inactive) | 7.33 µM (inactive) | 18.9 µM (inactive) | 17.9 µM (inactive) | 12.3 µM (inactive) | 14.1 µM (inactive) | 12.9 µM (inactive) | 16.6 µM (inactive) | 31.3 µM (inactive) | 29.4 µM (inactive) | 18.2 µM (inactive) | 3.92 µM (inactive) | 1.22 µM (inactive) | 20.3 | 15.3 µM (inactive) | 20.2 µM (inactive)
8 | CCOC(=O)/C=C(/C(=O)OCC)n1ccc(=O)n(Cc2cn(COCCOC(C)=O)nn2)c1=O | 25.8 µM (inactive) | 17.3 µM (inactive) | 21.7 µM (inactive) | 22.9 µM (inactive) | 28 µM (inactive) | 14.8 µM (inactive) | 4.74 µM (inactive) | 1.53 µM (inactive) | 18.1 µM (inactive) | 31.6 µM (inactive) | 20.3 µM (inactive) | 16.3 µM (inactive) | > 100 µM (inactive) | > 100 µM (inactive) | 19.1 µM (inactive) | 19.4 µM (inactive) | 20.3 | 15 µM (inactive) | > 100 µM (inactive)
9 | O=C1c2cc([N+](=O)[O-])ccc2NC2C(O)c3ccccc3N12 (centres undefined) | 38 µM (inactive) | 19.7 µM (inactive) | 25.2 µM (inactive) | 19.7 µM (inactive) | 23.5 µM (inactive) | 24.7 µM (inactive) | 21.6 µM (inactive) | 23.9 µM (inactive) | 80.4 µM (inactive) | 30.8 µM (inactive) | 29.3 µM (inactive) |  | 35.7 µM (inactive) | 30.1 µM (inactive) | 22.2 µM (inactive) | 19.3 µM (inactive) | 29.3 | 17.3 µM (inactive) | 17.7 µM (inactive)
10 | C[N+](C)(C)C(C1=CCCC1=O)c1ccccc1 (centres undefined) | > 100 µM (inactive) | 24.1 µM (inactive) | 19.7 µM (inactive) | 80.7 µM (inactive) | 20.6 µM (inactive) | 25.4 µM (inactive) | 24.5 µM (inactive) | 26.4 µM (inactive) | 23.5 µM (inactive) | 16.4 µM (inactive) | 54.5 µM (inactive) | 30.3 µM (inactive) | > 100 µM (inactive) | 24.8 µM (inactive) | 32.4 µM (inactive) | 15.3 µM (inactive) | 20.2 | 21.8 µM (inactive) | > 100 µM (inactive)
11 | CCCCCCC(C)c1ccc2c(c1)C(=O)c1nc3ccncc3c(=O)n1-2 (centres undefined) | 1.42 µM (inactive) | 0.661 µM (active) | 2.29 µM (inactive) | 1.66 µM (inactive) | 4.26 µM (inactive) | 3.33 µM (inactive) | 2.54 µM (inactive) | 78.3 µM (inactive) | 2.1 µM (inactive) | 2.5 µM (inactive) | 4.44 µM (inactive) | 14.5 µM (inactive) | 5.65 µM (inactive) | 5.13 µM (inactive) | 0.419 µM (active) | 0.225 µM (active) | 1.3 | 5.06 µM (inactive) | 5.9 µM (inactive)
12 | COc1ccc(N2CCOCC2)cc1 | > 100 µM (inactive) | > 100 µM (inactive) | > 100 µM (inactive) | > 100 µM (inactive) | > 100 µM (inactive) | > 100 µM (inactive) | > 100 µM (inactive) | > 100 µM (inactive) | > 100 µM (inactive) | > 100 µM (inactive) | > 100 µM (inactive) | > 100 µM (inactive) | > 100 µM (inactive) | > 100 µM (inactive) | > 100 µM (inactive) | > 100 µM (inactive) | > 100 | > 100 µM (inactive) | > 100 µM (inactive)
13 | CC[C@@]1(C[C@H]2C[C@@]3(C(=O)OC)c4[nH]c5ccccc5c4CCN3C2=S)COC2(CCCCC2)O1 | 3.12 µM (inactive) | 6.15 µM (inactive) | > 100 µM (inactive) | > 100 µM (inactive) | 3.75 µM (inactive) | 45.8 µM (inactive) | > 100 µM (inactive) | 2.62 µM (inactive) | 16.7 µM (inactive) | 6.92 µM (inactive) | > 100 µM (inactive) |  | 54.6 µM (inactive) | 22.2 µM (inactive) | 5.48 µM (inactive) | 4.44 µM (inactive) | 5.57 | 33.3 µM (inactive) | > 100 µM (inactive)
14 | O=c1[nH][nH]c(=O)n1/N=C/c1ccccc1 | > 100 µM (inactive) | > 100 µM (inactive) | > 100 µM (inactive) |  | > 100 µM (inactive) | > 100 µM (inactive) | > 100 µM (inactive) | > 100 µM (inactive) | > 100 µM (inactive) | > 100 µM (inactive) | > 100 µM (inactive) | > 100 µM (inactive) | > 100 µM (inactive) | > 100 µM (inactive) | > 100 µM (inactive) | > 100 µM (inactive) | > 100 | > 100 µM (inactive) | > 100 µM (inactive)
15 | OC1CCCCCCCCCCC1[S+]1CCCC1.O[B-](F)(F)F (centres undefined) | 27.7 µM (inactive) | > 100 µM (inactive) | > 100 µM (inactive) | 85.9 µM (inactive) | > 100 µM (inactive) | > 100 µM (inactive) | > 100 µM (inactive) | 44.1 µM (inactive) | 88.9 µM (inactive) | > 100 µM (inactive) | > 100 µM (inactive) | 68.4 µM (inactive) | 96.6 µM (inactive) | > 100 µM (inactive) | 29.6 µM (inactive) | > 100 µM (inactive) | > 100 | > 100 µM (inactive) | > 100 µM (inactive)
